The structures appear in SMILES notation. Read-outs that look alike come from different tables or passages of the source.

For this assay, the system named is Bacillus sp. A30-1 ATCC No. 53841 thermostable lipase. The note with it: 30° C., peroxide removed by dialysis before assay; for residual activity (of the original activity) after incubation with hydrogen peroxide: 0.5% hydrogen peroxide. On the procedure:
Lipase production was routinely assayed by monitoring the fatty acid released from corn oil. The assay is based on the fact that the dye Rhodamine 6G in benzene solution reacts with an acid to form a chromophore which can be spectrophotometrically quantified. One tenth mL of cell free culture broth (obtained by removing cells by centrifugation) was mixed with 0.02 mL of a 25% corn oil solution in 100 mM Tris-Hcl buffer (pH 9.5) and then incubated at 60° C. for 1 hr. After appropriate time the reaction was stopped with the addition of 0.1N HCl in 95% ethanol. The resulting fatty acids were extracted with petroleum ether, and evaporated to dryness under vacuum. Subsequently, diluted Rhodamine 6G stock solution was added. After fifteen minutes at room temperature the absorbance of the resulting reaction mixture was read at 515 nm. One unit of lipase is defined as the amount that will liberate 1 μmole of fatty acid per hour under the assay condition.
To an aliquot of enzyme solution containing a known amount of activity, different amounts of hydrogen peroxide were added to final concentration of 0.5, 1, 2, and 4% respectively. These were kept at 30° C. for different periods of time. Then hydrogen peroxide contained in enzyme solution was eliminated by dialysis against water. Residual activities were measured by the analytical methods described above.

Take `OO` [hydrogen peroxide]: the “residual activity (of the original activity) after incubation with hydrogen peroxide” value is, setting by setting: (1 hr) 100%; (19 hrs) 60%. Also, the “residual activity after incubation with hydrogen peroxide” value (4% hydrogen peroxide, 5 hrs) is recorded as 75%.

The values above are taken from US5093256A, “Essentially purified, thermostable and alkalophilic lipase from Bacillus Sp. A30-1 ATCC 53841” (priority 1989, dated 1992).
